We go through one molecule from article PMC10378394 (Current Issues in Molecular Biology, 2023).

One test relates to HUVECs. Put plainly: Tube formation assay. It is filed as cell-based, human. Here is the method:
Cell culture plates were coated with Matrigel at a concentration of 7 mg/mL and incubated at 37 °C for 45 min to allow gel formation. Human umbilical vein endothelial cells (HUVECs) were harvested using trypsin and resuspended in endothelial cell growth medium. Following a 5 h incubation period, the formation of endothelial cell tubes was assessed using an inverted photomicroscope (Nikon, Tokyo, Japan). Microphotographs were taken, and the quantification of tube formation, specifically tube length, was performed. To quantify tube formation, measurements were obtained using ImageJ. The long axis of each tube or single cell, as well as groups of adjacent cells, was measured.

The test system of the next test is MC38 syngeneic tumor. As to the kind of experiment: In vivo efficacy, syngeneic model. The arrangement: species or system C57BL/6 mice. To be noted: 80 mg/kg po QD. Here is the method: Human-derived colorectal cancer cell lines, LS513, HCT-116, and HT29, were subcutaneously transplanted into 6-week-old female BALB/c nude mice to establish tumor models. Additionally, the mouse cancer cell line MC38 was subcutaneously transplanted into 6-week-old female and C57BL/6 mice to induce tumor formation. […]. The treatments were administered orally once daily for 2 weeks based on the growth rate observed in the vehicle group. Tumor volume was evaluated three times a week using the formula Tumor volume (TV) = (tumor short diameter ^2 × tumor long diameter)/2. The body weight of the mice was measured three times a week to assess potential toxicity in vivo. […]

For another test, the system named is IL-10. Put plainly: Western blot of IL-10. It is filed as in vivo, mouse. To be noted: normalized to β-actin.
In the next test the target is BTK(h) (Homo sapiens, UniProt Q06187). As to the kind of experiment: Eurofins kinase assay.
A further test concerns the target Yes(h) (Homo sapiens, UniProt P07947). Put plainly: Eurofins kinase assay.
Another test has as its target PKBα(h) (Homo sapiens, UniProt P31749). As to the kind of experiment: Eurofins kinase assay.
The target of a further test is Met(h) (Homo sapiens, UniProt P08581). As to the kind of experiment: Eurofins kinase assay.
Sequence of Met(h) (P08581 25-1390): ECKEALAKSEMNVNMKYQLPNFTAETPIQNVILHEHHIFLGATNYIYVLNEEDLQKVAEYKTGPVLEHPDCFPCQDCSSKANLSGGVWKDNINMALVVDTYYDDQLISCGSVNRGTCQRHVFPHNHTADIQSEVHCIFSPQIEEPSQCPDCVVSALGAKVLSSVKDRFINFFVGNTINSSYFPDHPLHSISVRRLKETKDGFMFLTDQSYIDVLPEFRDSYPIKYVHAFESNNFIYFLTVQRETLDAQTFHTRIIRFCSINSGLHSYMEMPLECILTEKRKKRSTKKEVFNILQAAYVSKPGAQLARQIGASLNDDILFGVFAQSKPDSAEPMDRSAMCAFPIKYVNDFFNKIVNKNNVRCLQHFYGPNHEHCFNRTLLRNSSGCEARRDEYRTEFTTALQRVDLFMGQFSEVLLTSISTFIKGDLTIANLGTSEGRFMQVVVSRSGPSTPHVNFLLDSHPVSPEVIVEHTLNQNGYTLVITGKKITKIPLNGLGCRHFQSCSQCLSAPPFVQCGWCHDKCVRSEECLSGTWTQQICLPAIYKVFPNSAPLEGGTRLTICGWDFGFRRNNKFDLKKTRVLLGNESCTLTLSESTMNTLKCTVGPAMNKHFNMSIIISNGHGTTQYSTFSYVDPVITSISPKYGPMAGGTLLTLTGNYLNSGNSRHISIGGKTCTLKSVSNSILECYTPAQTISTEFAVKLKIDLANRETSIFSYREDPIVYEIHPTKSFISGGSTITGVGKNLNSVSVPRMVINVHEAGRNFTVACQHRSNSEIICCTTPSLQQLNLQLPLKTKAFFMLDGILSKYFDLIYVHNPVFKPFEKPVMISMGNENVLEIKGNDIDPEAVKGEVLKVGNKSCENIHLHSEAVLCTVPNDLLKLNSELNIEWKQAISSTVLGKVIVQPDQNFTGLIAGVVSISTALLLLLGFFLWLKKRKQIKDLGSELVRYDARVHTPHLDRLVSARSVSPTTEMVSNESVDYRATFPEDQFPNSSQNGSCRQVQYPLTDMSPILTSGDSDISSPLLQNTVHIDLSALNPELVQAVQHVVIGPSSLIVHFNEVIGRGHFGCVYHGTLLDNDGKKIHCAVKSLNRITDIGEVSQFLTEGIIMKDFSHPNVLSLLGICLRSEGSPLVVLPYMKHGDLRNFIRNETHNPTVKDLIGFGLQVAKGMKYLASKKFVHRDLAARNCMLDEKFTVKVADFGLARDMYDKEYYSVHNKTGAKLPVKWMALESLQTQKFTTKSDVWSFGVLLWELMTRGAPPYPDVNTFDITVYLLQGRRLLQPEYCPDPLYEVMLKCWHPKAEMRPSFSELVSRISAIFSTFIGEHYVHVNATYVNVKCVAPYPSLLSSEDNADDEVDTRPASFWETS
For another test, the target named is Flt3(h) (Homo sapiens, UniProt P36888). As to the kind of experiment: Eurofins kinase assay.
A further test has as its target PKD2(h) (Homo sapiens, UniProt Q9BZL6). Put plainly: Eurofins kinase assay.
The target of a further test is CaMKIV(h) (Homo sapiens, UniProt Q16566). Put plainly: Eurofins kinase assay.
The target of a further test is PKBγ(h) (Homo sapiens, UniProt Q9Y243). Put plainly: Eurofins kinase assay.
Sequence of PKBγ(h) (Q9Y243 whole entry): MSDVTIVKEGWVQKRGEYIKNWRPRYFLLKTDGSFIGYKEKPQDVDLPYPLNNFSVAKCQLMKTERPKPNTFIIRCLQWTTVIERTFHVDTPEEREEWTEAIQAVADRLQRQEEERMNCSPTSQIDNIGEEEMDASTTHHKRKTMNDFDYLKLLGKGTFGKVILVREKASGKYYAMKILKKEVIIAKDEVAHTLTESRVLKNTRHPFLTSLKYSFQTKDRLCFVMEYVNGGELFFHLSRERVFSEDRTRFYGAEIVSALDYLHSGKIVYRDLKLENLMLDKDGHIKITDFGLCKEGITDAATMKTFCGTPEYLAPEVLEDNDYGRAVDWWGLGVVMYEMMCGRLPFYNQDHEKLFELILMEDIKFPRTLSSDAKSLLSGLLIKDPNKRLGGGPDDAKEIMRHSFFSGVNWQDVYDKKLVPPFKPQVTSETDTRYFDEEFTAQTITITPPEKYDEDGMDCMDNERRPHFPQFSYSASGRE
The target in the next test is PKBβ(h) (Homo sapiens, UniProt P31751). Put plainly: Eurofins kinase assay.
The next test addresses CHK2(h) (Homo sapiens, UniProt O96017). As to the kind of experiment: Eurofins kinase assay.
Another test concerns the target PDK1(h) (Homo sapiens, UniProt O15530). Put plainly: Eurofins kinase assay.
Another test concerns the target EGFR(h) (Homo sapiens, UniProt P00533). Put plainly: Eurofins kinase assay.
A further test addresses CDK6/cyclinD3(h) (Homo sapiens, UniProt Q00534). Put plainly: Eurofins kinase assay.
The target of another test is Ros(h) (Homo sapiens, UniProt P08922). As to the kind of experiment: Eurofins kinase assay.
Sequence of Ros(h) (P08922 28-2347): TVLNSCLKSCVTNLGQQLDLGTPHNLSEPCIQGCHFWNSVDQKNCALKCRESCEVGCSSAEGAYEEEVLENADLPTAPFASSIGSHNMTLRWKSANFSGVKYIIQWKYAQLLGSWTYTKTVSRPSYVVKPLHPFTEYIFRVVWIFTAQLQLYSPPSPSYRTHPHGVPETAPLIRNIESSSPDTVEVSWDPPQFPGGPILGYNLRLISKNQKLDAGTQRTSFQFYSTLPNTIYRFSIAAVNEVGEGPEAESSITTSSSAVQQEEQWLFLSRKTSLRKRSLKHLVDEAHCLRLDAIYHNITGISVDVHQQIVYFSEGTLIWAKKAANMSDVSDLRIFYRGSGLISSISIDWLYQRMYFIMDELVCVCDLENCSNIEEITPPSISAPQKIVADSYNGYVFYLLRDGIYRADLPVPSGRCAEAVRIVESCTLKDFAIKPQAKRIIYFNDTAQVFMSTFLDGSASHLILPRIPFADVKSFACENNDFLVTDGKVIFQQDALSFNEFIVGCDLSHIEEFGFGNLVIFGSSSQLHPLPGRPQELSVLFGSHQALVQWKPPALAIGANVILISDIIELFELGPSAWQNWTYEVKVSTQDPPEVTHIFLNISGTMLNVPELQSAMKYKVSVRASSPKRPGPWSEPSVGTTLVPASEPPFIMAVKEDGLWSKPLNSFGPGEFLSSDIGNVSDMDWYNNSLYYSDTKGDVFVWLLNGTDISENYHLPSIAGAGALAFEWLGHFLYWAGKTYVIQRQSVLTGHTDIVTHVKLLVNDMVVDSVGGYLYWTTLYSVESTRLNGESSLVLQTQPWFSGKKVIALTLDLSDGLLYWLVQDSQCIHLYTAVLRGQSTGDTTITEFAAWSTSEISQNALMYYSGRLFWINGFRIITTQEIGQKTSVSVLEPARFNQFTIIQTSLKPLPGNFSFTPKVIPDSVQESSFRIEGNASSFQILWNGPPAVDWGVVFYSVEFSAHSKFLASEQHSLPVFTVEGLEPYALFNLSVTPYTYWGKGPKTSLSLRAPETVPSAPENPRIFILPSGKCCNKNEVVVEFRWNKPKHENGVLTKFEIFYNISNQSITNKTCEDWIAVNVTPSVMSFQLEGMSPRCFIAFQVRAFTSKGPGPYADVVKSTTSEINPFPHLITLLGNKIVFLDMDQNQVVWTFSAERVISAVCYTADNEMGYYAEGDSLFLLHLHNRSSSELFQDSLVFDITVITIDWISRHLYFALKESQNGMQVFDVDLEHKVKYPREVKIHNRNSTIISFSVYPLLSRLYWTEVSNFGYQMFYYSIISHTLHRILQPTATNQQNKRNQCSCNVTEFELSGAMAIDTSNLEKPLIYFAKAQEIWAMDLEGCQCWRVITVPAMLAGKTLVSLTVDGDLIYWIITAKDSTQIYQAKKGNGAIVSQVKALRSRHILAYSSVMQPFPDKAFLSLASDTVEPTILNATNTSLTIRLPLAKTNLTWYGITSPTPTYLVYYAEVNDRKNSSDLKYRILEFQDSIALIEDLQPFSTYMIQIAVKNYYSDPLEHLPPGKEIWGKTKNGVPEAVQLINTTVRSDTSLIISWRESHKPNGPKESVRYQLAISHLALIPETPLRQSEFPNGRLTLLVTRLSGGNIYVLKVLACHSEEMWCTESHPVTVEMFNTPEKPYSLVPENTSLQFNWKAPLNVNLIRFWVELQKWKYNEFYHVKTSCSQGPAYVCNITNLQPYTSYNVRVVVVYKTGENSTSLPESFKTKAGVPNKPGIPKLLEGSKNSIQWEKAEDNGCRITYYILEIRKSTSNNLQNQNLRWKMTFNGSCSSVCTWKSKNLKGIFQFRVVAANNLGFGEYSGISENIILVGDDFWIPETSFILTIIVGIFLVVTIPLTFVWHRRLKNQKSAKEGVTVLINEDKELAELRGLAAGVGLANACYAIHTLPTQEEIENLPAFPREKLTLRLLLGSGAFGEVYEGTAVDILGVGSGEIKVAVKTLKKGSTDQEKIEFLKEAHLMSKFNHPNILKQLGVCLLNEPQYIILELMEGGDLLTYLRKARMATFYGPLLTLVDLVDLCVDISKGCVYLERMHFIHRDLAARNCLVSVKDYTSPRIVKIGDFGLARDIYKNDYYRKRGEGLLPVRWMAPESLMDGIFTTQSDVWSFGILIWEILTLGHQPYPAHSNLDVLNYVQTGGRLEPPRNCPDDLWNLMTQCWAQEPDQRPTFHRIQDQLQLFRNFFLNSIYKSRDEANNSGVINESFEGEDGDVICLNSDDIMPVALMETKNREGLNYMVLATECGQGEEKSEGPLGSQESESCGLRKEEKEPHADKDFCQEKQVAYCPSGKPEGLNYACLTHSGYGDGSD
For test [1], the system named is KRAS and BRAF mutant cancer cells (HCT116, LS513, SW620, HT29). As to the kind of experiment: Cell growth assay, panel of cell lines. Particulars: read-out: IC50 values, cell growth.
Procedure: To assess cell viability, the CellTiter-Glo Luminescent Cell Viability Assay Reagent (Promega, Fitchburg, WI, USA) was added to each well. The assay measured ATP levels as an indicator of cell viability. All data points were normalized to the control samples treated with dimethyl sulfoxide when determining IC50 values. Statistical calculations and data analysis, including IC50 determination, were performed using GraphPad Prism software.

Sequence of CHK2(h) (O96017 whole entry): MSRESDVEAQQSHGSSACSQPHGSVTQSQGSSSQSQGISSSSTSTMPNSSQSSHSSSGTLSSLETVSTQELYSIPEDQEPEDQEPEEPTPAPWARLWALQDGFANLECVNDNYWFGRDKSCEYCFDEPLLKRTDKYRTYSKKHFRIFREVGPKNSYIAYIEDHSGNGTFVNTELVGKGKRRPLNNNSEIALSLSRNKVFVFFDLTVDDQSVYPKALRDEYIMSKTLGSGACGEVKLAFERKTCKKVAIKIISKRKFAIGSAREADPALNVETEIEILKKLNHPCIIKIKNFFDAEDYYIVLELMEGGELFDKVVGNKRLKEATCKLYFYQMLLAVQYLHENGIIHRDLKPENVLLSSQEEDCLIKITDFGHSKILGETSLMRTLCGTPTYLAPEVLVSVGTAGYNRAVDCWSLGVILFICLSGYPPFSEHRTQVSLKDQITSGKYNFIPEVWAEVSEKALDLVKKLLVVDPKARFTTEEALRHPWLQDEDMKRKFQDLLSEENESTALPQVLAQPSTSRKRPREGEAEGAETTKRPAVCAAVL

As a reminder, the TGI is the reduction of tumour growth relative to the control group. A lower TGI goes with little slowing of growth. By inhibition is commonly meant the relative decrease from the control value, in per cent. For orientation: IC50 means the concentration that gives 50% inhibition. For the molecule `O=C(Nc1cc(Nc2ncccc2-c2ncnc3[nH]cnc23)ccc1F)c1cc(C(F)(F)F)cc(C(F)(F)F)c1` [SJ-C1044, N-(5-(3-(9H-purin-6-yl)pyridin-2-ylamino)-2-fluorophenyl)-3,5-bis(trifluoromethyl)benzamide], the “VEGF-stimulated endothelial tube formation” value with HUVECs was “strong activity”. Also, the “VEGF-induced tube formation, compared to LY3009120” value with HUVECs (10 μM, 10 nmol/L VEGF) is reported as “more effectively blocked”. In the test with MC38 syngeneic tumor (14 days), the TGI was 88%. Further, the “MC38 tumor growth in vivo” value in the test with MC38 syngeneic tumor (compared to the control) was “completely inhibited”. This molecule also yielded an IL-10 protein expression in the test on IL-10 of 33 % CTL. Also, the inhibition at 10 µM against BTK(h) amounted to 18%; against Yes(h), 17%; at PKBα(h), 15%; against Met(h), 13%; at Flt3(h), 3%; against PKD2(h), 3%. For the same molecule, the inhibition at 10 µM against CaMKIV(h) is 2%; against PKBγ(h), 2%; at PKBβ(h), 1%; at CHK2(h), 0%; on PDK1(h) it was 0%; at EGFR(h) it was -4%. Also, the figures for the inhibition at 10 µM at CDK6/cyclinD3(h) and at Ros(h) were -5% and -12%, respectively. For the same molecule, in test [1], the IC50 lay within 160 to 628 nM.
